Experimental data reported in patent US10294237B2, “Bicyclic heterocyclic amide derivative” (Sumitomo Dainippon Pharma Co., Ltd., priority 2015, dated 2019).
pIC50: −log10 of the molar value. Counter-ions that a name gives are not always drawn.

Experiments:
[1] = test system: HCT-116 cells; experiment: Test for inhibiting sphere-forming ability of cancer cells; format: cell-based; settings: HCT-116 spheres, non-adherent, serum-free, 4 days, CellTiter-Glo, read-out: IC50 (Sphere IC50 value; concentration for 50% inhibition of cell proliferation)
Experimental: (§1) The reliable methods established for measuring the self-renewal ability of cells which is one of the CSC's properties include a method for measuring the sphere-forming ability of cancer cells in non-adherent condition in the absence of serum (Cancer Res 65, 5506-5511 (2005)). HCT-116 cells were available from the American Type Culture Collection (ATCC). HCT-116 cells were cultured at 37° C. and 5% CO2 using the McCoy's 5a medium containing 10% fetal bovine serum (FBS) and 1% penicillin/streptomycin. HCT-116 cells were seeded in a 384 Well Black Clear Bottom Ultra-Low Attachment Microplate (Corning Cat. No. 3827) in an amount of 350-800 cells/well using the DMEM/F12 medium containing 2% B27 supplement (GIBCO), 20 ng/mL epidermal growth factor (EGF) (peprotech), 10 ng/mL basic fibroblast growth factor (bFGF) (peprotech), 5 μg/mL insulin (Sigma), and 1% penicillin/streptomycin. The test compounds were added into each well to adjust the final concentration of DMSO to 0.1%, and the cells were cultured for 4 days. The number of viable cells in each well was then measured with CellTiter-Glo® Luminescent Cell Viability Assay (Promega) to calculate the concentration of each test compound for 50% inhibition of cell proliferation (Sphere IC50 value; μmol/L).
The experiment of Test Example 1 was performed for the compounds of each Example. The concentrations of each test compound for 50% inhibition of cell profeliration (Sphere IC50 value; μmol/L) are shown in the following Table.

[2] = test system: HCT-116 cells; experiment: Test for inhibiting sphere-forming ability of cancer cells (in the presence of BSA); format: cell-based; settings: HCT-116 spheres, non-adherent, 5% BSA, 4 days, CellTiter-Glo, read-out: IC50 (Sphere IC50 value; concentration for 50% inhibition of cell proliferation)
Experimental: as §1, with “HCT-116” for “The reliable methods established for measuring the self-renewal ability of cells which is one of the CSC's properties include a method for measuring the sphere-forming ability of cancer cells in non-adherent condition in the absence of serum (Cancer Res 65, 5506-5511 (2005)). HCT-116”, “(Sigma), 5% bovine serum albumin (BSA),” for “(Sigma),”
The experiment of Test Example 2 was performed for the compounds of each Example. The concentrations of each test compound for 50% inhibition of cell profeliration (Sphere IC50 value; μmol/L) are shown in the following Table.

O=C(Nc1cn(Cc2cccc(C(F)(F)F)c2)cn1)c1ccc2c(c1)CNCC2 [Example 18]
pIC50 ([1]; Homo sapiens, 96 h): 6.17
pIC50 ([2]; Homo sapiens, HCT-116, 96 h): 6.15

O=C(Nc1cn(Cc2ccc(F)c(C(F)(F)F)c2)cn1)c1cnc2c(c1)CCNC2 [Example 53, N-{1-[4-fluoro-3-(trifluoromethyl)benzyl]-1H-imidazol-4-yl}-5,6,7,8-tetrahydro-1,7-naphthyridine-3-carboxamide]
pIC50 ([1]; Homo sapiens, 96 h): 7.22
pIC50 ([2]; Homo sapiens, HCT-116, 96 h): 7.22

O=C(Nc1cn(Cc2ccc(C(F)(F)F)o2)cn1)c1ccc2c(c1)CCNC2 [Example 104]
pIC50 ([1]; Homo sapiens, 96 h): 6.21
pIC50 ([2]; Homo sapiens, HCT-116, 96 h): 6.28

O=C(Nc1cn(Cc2cccc(C(F)(F)F)c2)cn1)c1cc2c(s1)CNCC2 [Example 17]
pIC50 ([1]; Homo sapiens, 96 h): 6.21
pIC50 ([2]; Homo sapiens, HCT-116, 96 h): 6.14

O=C(Nc1ccc2c(c1)CCNC2)c1cn(Cc2cc(F)c(F)c(F)c2)cn1 [Example 4, N-(1,2,3,4-tetrahydroisoquinolin-6-yl)-1-(3,4,5-trifluorobenzyl)-1H-imidazole-4-carboxamide]
pIC50 ([1]; Homo sapiens, 96 h): 6.18
pIC50 ([2]; Homo sapiens, HCT-116, 96 h): 6.25

N#Cc1cccc(Cn2cnc(NC(=O)c3cnc4c(c3)CCNC4)c2)c1 [Example 63]
pIC50 [1]: 5.44
pIC50 [2]: 6.15

O=C(Nc1cn(Cc2cccc(F)c2)cn1)c1ccc2c(c1)CCNC2 [Example 77]
pIC50 [1]: 6.21
pIC50 [2]: 6.22

O=C(Nc1cn(Cc2ccc3ccccc3c2)cn1)c1ccc2c(c1)CCNC2 [Example 103]
pIC50 ([1]; Homo sapiens, 96 h): 5.38
pIC50 ([2]; Homo sapiens, HCT-116, 96 h): 5.21

O=C(Nc1cn(Cc2ccc3ccccc3c2)cn1)c1cnc2c(c1)CCNC2 [Example 66]
pIC50 [1]: 6.15
pIC50 [2]: 5.26

O=C(Nc1cn(Cc2ccc(F)c(F)c2)cn1)c1cnc2c(c1)CCNC2 [Example 48, N-[1-(3,4-difluorobenzyl)-1H-imidazol-4-yl]-5,6,7,8-tetrahydro-1,7-naphthyridine-3-carboxamide]
pIC50 ([1]; Homo sapiens, 96 h): 7.10
pIC50 ([2]; Homo sapiens, HCT-116, 96 h): 7.22

O=C1CCc2cc(C(=O)Nc3cn(Cc4cccc(C(F)(F)F)c4)cn3)ccc2C1 [Example 110, 6-Oxo-N-{1-[3-(trifluoromethyl)benzyl]-1H-imidazol-4-yl}-5,6,7,8-tetrahydronaphthalene-2-carboxamide]
pIC50 ([1]; Homo sapiens, 96 h): 6.17
pIC50 ([2]; Homo sapiens, HCT-116, 96 h): 6.24

O=C(/C=C/c1ccc2c(c1)CCNC2)Nc1cn(Cc2cc(F)c(F)c(F)c2)cn1 [Example 112]
pIC50 ([1]; Homo sapiens, 96 h): 6.15
pIC50 ([2]; Homo sapiens, HCT-116, 96 h): 5.20

O=C(Nc1cn(CCC2CCCCC2)cn1)c1ccc2c(c1)CCNC2 [Example 86]
pIC50 [1]: 6.33
pIC50 [2]: 6.25

O=C(Nc1cn(Cc2ccccc2F)cn1)c1ccc2c(c1)CCNC2 [Example 72]
pIC50 [1]: 5.46
pIC50 [2]: 5.26

Cc1c(NC(=O)c2ccc3c(c2)CCNC3)ncn1Cc1cccc(C(F)(F)F)c1 [Example 21]
pIC50 ([1]; Homo sapiens, 96 h): 5.21
pIC50 ([2]; Homo sapiens, HCT-116, 96 h): 5.21

O=C(Nc1cc2c(cc1F)CNCC2)c1cn(Cc2cc(F)c(F)c(F)c2)cn1 [Example 1, N-(7-fluoro-1,2,3,4-tetrahydroisoquinolin-6-yl)-1-(3,4,5-trifluorobenzyl)-1H-imidazole-4-carboxamide]
pIC50 ([1]; Homo sapiens, 96 h): 7.10
pIC50 ([2]; Homo sapiens, HCT-116, 96 h): 6.77

O=C(Nc1cn(Cc2cc(F)c(F)c(F)c2)cn1)c1cc2c(cc1F)CNCC2 [Example 7]
pIC50 ([1]; Homo sapiens, 96 h): 6.41
pIC50 ([2]; Homo sapiens, HCT-116, 96 h): 6.21

O=C(Nc1cn(Cc2cccc(Oc3ccccc3)c2)cn1)c1ccc2c(c1)CCNC2 [Example 89, N-[1-(3-phenoxybenzyl)-1H-imidazol-4-yl]-1,2,3,4-tetrahydroisoquinoline-6-carboxamide]
pIC50 ([1]; Homo sapiens, 96 h): 7.15
pIC50 ([2]; Homo sapiens, HCT-116, 96 h): 6.19

O=C(/C=C/c1ccc2c(c1)OCCO2)Nc1cn(Cc2cccc(Cl)c2)cn1 [Example 39]
pIC50 ([1]; Homo sapiens, 96 h): 6.04
pIC50 ([2]; Homo sapiens, HCT-116, 96 h): 6.10

O=C(Nc1cn(Cc2cc(Cl)cc(OC(F)(F)F)c2)cn1)c1cnc2c(c1)CCNC2 [Example 70, N-{1-[3-chloro-5-(trifluoromethoxy)benzyl]-1H-imidazol-4-yl}-5,6,7,8-tetrahydro-1,7-naphthyridine-3-carboxamide]
pIC50 ([1]; Homo sapiens, 96 h): 7.40
pIC50 ([2]; Homo sapiens, HCT-116, 96 h): 7.22

Nc1cccc(Cn2cnc(NC(=O)c3cnc4c(c3)CCNC4)c2)c1 [Example 67]
pIC50 [2]: 5.07

O=C(/C=C/c1ccc2c(c1)OC(F)(F)O2)Nc1cn(Cc2cccc(Cl)c2)cn1 [Example 40]
pIC50 ([1]; Homo sapiens, 96 h): 7.10
pIC50 ([2]; Homo sapiens, HCT-116, 96 h): 7.15

O=C(Nc1cn(Cc2ccccc2)cn1)c1ccc2c(c1)CCNC2 [Example 71]
pIC50 [1]: 6.04
pIC50 [2]: 6.11

O=C(Nc1cn(Cc2ccc(Cl)c(Cl)c2)cn1)c1ccc2c(c1)CCNC2 [Example 102, N-[1-(3,4-dichlorobenzyl)-1H-imidazol-4-yl]-1,2,3,4-tetrahydroisoquinoline-6-carboxamide]
pIC50 ([1]; Homo sapiens, 96 h): 7.22
pIC50 ([2]; Homo sapiens, HCT-116, 96 h): 7.22

O=C(Nc1cn(Cc2ccc(Cl)c(C(F)(F)F)c2)cn1)c1cnc2c(c1)CCNC2 [Example 54, N-{1-[4-chloro-3-(trifluoromethyl)benzyl]-1H-imidazol-4-yl}-5,6,7,8-tetrahydro-1,7-naphthyridine-3-carboxamide]
pIC50 ([1]; Homo sapiens, 96 h): > 8.00
pIC50 ([2]; Homo sapiens, HCT-116, 96 h): 7.52

COc1cccc(Cn2cnc(NC(=O)c3cnc4c(c3)CCNC4)c2)c1 [Example 58]
pIC50 [1]: 6.74
pIC50 [2]: 7.10

O=C(Nc1cc2c(cn1)CNCC2)c1cn(Cc2ccc(F)c(F)c2)cn1 [Example 35, 1-(3,4-difluorobenzyl)-N-(5,6,7,8-tetrahydro-2,7-naphthyridin-3-yl)-1H-imidazole-4-carboxamide]
pIC50 ([1]; Homo sapiens, 96 h): 7.10
pIC50 ([2]; Homo sapiens, HCT-116, 96 h): 7.30

O=C(Nc1cn(CCOc2ccccc2)cn1)c1cnc2c(c1)CCNC2 [Example 116]
pIC50 [1]: 5.22
pIC50 [2]: 5.71

O=C(Nc1cn(CC2CCOCC2)cn1)c1cnc2c(c1)CCNC2 [Example 118]
pIC50 [2]: 5.21

O=C(Nc1cn(Cc2ccccc2C(F)(F)F)cn1)c1ccc2c(c1)CCNC2 [Example 82]
pIC50 [1]: 5.42
pIC50 [2]: 5.31

O=C(Nc1cn(Cc2cccc(C(F)(F)F)c2)cn1)c1nc2c(s1)CCNC2 [Example 20]
pIC50 ([1]; Homo sapiens, 96 h): 4.19

O=C(Nc1cn(Cc2cccc(O)c2)cn1)c1ccc2c(c1)CCNC2 [Example 107]
pIC50 ([2]; Homo sapiens, HCT-116, 96 h): 5.20

CC(=O)N1CCc2cc(C(=O)Nc3cn(Cc4cccc(C(F)(F)F)c4)cn3)ccc2C1 [Example 108, 2-Acetyl-N-{1-[3-(trifluoromethyl)benzyl]-1H-imidazol-4-yl}-1,2,3,4-tetrahydroisoquinoline-6-carboxamide trifluoroacetate]
pIC50 ([1]; Homo sapiens, 96 h): 5.18

O=C(Nc1cn(Cc2cccc(C(F)(F)F)c2)cn1)c1ccc2c(c1)CCOC2 [Example 23]
pIC50 ([1]; Homo sapiens, 96 h): 5.31

O=C(Nc1cn(Cc2cccc(C(F)(F)F)c2)cn1)c1ccc2c(c1)CNC2 [Example 33]
pIC50 ([1]; Homo sapiens, 96 h): 5.83

COc1ccc(Cn2cnc(NC(=O)c3ccc4c(c3)CCNC4)c2)cc1 [Example 84]
pIC50 [1]: 5.17

O=C(Nc1cn(Cc2cccc(C(F)(F)F)c2)cn1)c1ccc2c(c1)CCC1(C2)OCCO1 [Example 109, N-{1-[3-(Trifluoromethyl)benzyl]-1H-imidazol-4-yl}-3′,4′-dihydro-1′H-spiro[1,3-dioxolane-2,2′-naphthalene]-6′-carboxamide]
pIC50 ([1]; Homo sapiens, 96 h): 5.15

CN1CCc2cc(C(=O)Nc3cn(Cc4cccc(C(F)(F)F)c4)cn3)ccc2C1 [Example 30, 2-Methyl-N-{1-[3-(trifluoromethyl)benzyl]-1H-imidazol-4-yl}-1,2,3,4-tetrahydroisoquinoline-6-carboxamide]
pIC50 ([1]; Homo sapiens, 96 h): 5.21

CC1(C)CNCc2ccc(C(=O)Nc3cn(Cc4cccc(C(F)(F)F)c4)cn3)cc21 [Example 32]
pIC50 ([1]; Homo sapiens, 96 h): 4.14
